{
  "source": "ChEMBL document CHEMBL1130586",
  "about": "(Bioorg Med Chem Lett, 1998)",
  "key": {"[1]": {"target": "Histamine H1 receptor (Cavia porcellus) (UniProt P31389)", "sequence (P31389 whole entry)": "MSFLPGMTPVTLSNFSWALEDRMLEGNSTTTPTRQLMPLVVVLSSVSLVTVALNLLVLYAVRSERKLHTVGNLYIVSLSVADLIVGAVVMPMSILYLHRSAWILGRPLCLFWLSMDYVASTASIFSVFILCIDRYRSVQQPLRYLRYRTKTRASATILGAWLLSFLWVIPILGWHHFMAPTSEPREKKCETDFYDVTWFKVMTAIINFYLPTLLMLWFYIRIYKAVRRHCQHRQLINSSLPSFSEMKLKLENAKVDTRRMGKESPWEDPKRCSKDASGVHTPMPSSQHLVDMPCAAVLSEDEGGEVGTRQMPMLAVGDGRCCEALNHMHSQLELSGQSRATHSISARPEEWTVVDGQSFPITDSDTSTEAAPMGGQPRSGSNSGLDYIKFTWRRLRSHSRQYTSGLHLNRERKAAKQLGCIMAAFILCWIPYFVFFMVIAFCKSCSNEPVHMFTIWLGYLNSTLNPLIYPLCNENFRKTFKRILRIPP", "assay": "Relative potency against Histamine H1 receptor in guinea pig ileum.", "format": "functional, tissue-based"}, "[2]": {"target": "Histamine H1 receptor (Cavia porcellus) (UniProt P31389)", "assay": "Relative potency against Histamine H1 receptor of guinea pig aorta", "format": "functional, tissue-based"}, "[3]": {"target": "Histamine H2 receptor (Cavia porcellus) (UniProt P47747)", "sequence (P47747 whole entry)": "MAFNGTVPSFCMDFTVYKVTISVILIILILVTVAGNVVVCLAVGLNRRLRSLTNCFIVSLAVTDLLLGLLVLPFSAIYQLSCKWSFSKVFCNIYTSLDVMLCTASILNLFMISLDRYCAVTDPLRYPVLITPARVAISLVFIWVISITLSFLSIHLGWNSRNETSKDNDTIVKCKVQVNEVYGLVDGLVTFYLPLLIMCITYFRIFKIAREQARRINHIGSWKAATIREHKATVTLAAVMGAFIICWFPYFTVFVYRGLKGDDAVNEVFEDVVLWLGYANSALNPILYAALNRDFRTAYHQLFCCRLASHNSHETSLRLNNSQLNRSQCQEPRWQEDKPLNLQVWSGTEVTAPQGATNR", "assay": "Compound was tested for agonist activity against histamine H2 receptor of guinea pig atrium", "format": "functional, tissue-based", "conditions": "Cardiac atrium"}, "Histamine H3 receptor": {"target": "Histamine H3 receptor (Cavia porcellus, UniProt Q9JI35)", "sequence (Q9JI35 whole entry)": "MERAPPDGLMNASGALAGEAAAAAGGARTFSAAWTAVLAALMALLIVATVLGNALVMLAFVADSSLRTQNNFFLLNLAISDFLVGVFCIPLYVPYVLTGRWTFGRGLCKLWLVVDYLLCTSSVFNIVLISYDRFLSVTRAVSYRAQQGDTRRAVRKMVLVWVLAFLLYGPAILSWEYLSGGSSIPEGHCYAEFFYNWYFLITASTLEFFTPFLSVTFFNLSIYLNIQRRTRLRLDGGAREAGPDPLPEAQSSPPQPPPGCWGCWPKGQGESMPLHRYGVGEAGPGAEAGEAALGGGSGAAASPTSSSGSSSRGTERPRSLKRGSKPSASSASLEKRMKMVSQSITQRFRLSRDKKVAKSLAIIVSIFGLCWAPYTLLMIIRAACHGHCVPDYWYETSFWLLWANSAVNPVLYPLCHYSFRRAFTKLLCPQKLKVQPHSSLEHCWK", "assay": "Compound was tested for the agonist activity against histamine H3 receptor of guinea pig ileum", "format": "functional, tissue-based", "conditions": "read-out: pA2 (converted)"}, "Histamine H1 receptor [4]": {"target": "T1, Histamine H1 receptor (Cavia porcellus, UniProt P31389)", "T1 sequence (P31389 whole entry)": "as the sequence (P31389 whole entry) above", "assay": "Contractile effects antagonized by mepyramine (0.3-100 nM) against Histamine H1 receptor in guinea pig ileum", "format": "functional, tissue-based", "conditions": "read-out: pA2 (converted)"}, "Histamine H1 receptor [5]": {"target": "T1, Histamine H1 receptor", "assay": "Compound was tested for the contractile effects antagonized by mepyramine (1-1000 nM) against Histamine H1 receptor of guinea pig aorta.", "format": "functional", "conditions": "read-out: pA2 (converted)"}, "[6]": {"target": "Histamine H1 receptor (Cavia porcellus) (UniProt P31389)", "assay": "Compound was tested for its […] in the presence of mepyramine (1-1000 nM) against Histamine H1 receptor of guinea pig aorta.", "format": "functional"}, "[7]": {"target": "Histamine H1 receptor (Cavia porcellus) (UniProt P31389)", "assay": "Partial agonist activity against Histamine H1 receptor in guinea pig aorta", "format": "functional, tissue-based"}, "[8]": {"target": "Histamine H1 receptor (Cavia porcellus) (UniProt P31389)", "assay": "Partial agonist activity against Histamine H1 receptor in guinea pig ileum.", "format": "functional, tissue-based"}, "[9]": {"target": "Histamine H1 receptor (Cavia porcellus) (UniProt P31389)", "assay": "Compound was tested for binding affinity against guinea pig ileum", "format": "tissue-based"}, "[10]": {"target": "Muscarinic acetylcholine receptor M3 (Cavia porcellus, UniProt Q8VH26)", "sequence (Q8VH26 whole entry)": "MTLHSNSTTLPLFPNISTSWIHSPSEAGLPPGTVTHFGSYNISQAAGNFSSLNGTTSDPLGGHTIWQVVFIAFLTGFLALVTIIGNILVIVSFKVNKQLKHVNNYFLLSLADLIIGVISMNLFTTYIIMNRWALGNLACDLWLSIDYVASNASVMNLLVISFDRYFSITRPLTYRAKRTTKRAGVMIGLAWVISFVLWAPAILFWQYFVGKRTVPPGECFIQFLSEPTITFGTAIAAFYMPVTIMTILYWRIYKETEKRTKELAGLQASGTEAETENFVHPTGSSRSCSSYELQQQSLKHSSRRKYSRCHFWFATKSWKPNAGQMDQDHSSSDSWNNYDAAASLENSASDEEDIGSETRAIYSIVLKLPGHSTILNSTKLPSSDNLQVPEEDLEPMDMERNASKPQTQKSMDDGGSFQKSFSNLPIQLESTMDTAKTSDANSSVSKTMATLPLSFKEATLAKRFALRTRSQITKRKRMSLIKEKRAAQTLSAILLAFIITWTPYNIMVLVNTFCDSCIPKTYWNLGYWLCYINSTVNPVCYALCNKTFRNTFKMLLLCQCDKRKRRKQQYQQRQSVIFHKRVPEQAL", "assay": "Compound was tested for its agonist activity against M3-acetylcholine receptor of guinea pig ileum.", "format": "functional, tissue-based", "conditions": "read-out: pA2 (converted)"}, "[11]": {"target": "Histamine H1 receptor (Cavia porcellus) (UniProt P31389)", "assay": "Partial agonist activity with mepyramine against Histamine H1 receptor in guinea pig ileum.", "format": "functional, tissue-based"}, "[12]": {"target": "Histamine H1 receptor (Cavia porcellus) (UniProt P31389)", "assay": "Compound was tested for its partial agonist activity in the presence of 1 nM mepyramine against Histamine H1 receptor in guinea pig ileum.", "format": "functional, tissue-based"}, "[13]": {"target": "Histamine H1 receptor (Cavia porcellus) (UniProt P31389)", "assay": "Compound was tested for its partial agonist activity in the presence of 10 nM mepyramine against Histamine H1 receptor in guinea pig ileum.", "format": "functional, tissue-based"}, "[14]": {"target": "Histamine H1 receptor (Cavia porcellus) (UniProt P31389)", "assay": "Compound was tested for its partial agonist activity in the presence of 100 nM mepyramine against Histamine H1 receptor in guinea pig ileum.", "format": "functional, tissue-based"}},
  "data": [
    {"smiles": "CN(C)CCc1c[nH]c(-c2cccc(Br)c2)n1", "values": [
      {"measurement": "Relative potency", "setting": "[1]", "value": 87, "unit": "%"},
      {"measurement": "Relative potency", "setting": "[2]", "value": 31, "unit": "%"},
      {"measurement": "pD2", "setting": "[3]", "value": 4.74},
      {"measurement": "Kb", "setting": "Histamine H3 receptor", "value": 1450, "unit": "nM"},
      {"measurement": "Kb", "setting": "Histamine H1 receptor [4]", "value": 0.708, "unit": "nM"},
      {"measurement": "Kb", "setting": "Histamine H1 receptor [5]", "value": 1.15, "unit": "nM"},
      {"measurement": "Emax", "setting": "[6]", "value": 49, "unit": "%"},
      {"measurement": "Emax", "setting": "[7]", "value": 58, "unit": "%"},
      {"measurement": "Emax", "setting": "[8]", "value": 81, "unit": "%"},
      {"measurement": "pKp", "setting": "[9]", "value": 6.2},
      {"measurement": "Kb", "setting": "[10]", "value": 64600, "unit": "nM"},
      {"measurement": "Emax", "setting": "[11]", "value": 58, "unit": "%"}
    ]},
    {"smiles": "CCNCCc1c[nH]c(-c2cccc(C(F)(F)F)c2)n1", "values": [
      {"measurement": "Relative potency", "setting": "[1]", "value": 30, "unit": "%"},
      {"measurement": "pD2", "setting": "[3]", "value": 4.55},
      {"measurement": "Kb", "setting": "Histamine H3 receptor", "value": 2340, "unit": "nM"},
      {"measurement": "Kb", "setting": "Histamine H1 receptor [4]", "value": 1.05, "unit": "nM"},
      {"measurement": "Emax", "setting": "[8]", "value": 63, "unit": "%"},
      {"measurement": "pKp", "setting": "[9]", "value": 5.68},
      {"measurement": "Kb", "setting": "[10]", "value": 69200, "unit": "nM"},
      {"measurement": "Emax", "setting": "[11]", "value": 40, "unit": "%"}
    ]},
    {"smiles": "CNCCc1c[nH]c(-c2cccc(C(F)(F)F)c2)n1", "values": [
      {"measurement": "Relative potency", "setting": "[1]", "value": 174, "unit": "%"},
      {"measurement": "Relative potency", "setting": "[2]", "value": 217, "unit": "%"},
      {"measurement": "pD2", "setting": "[3]", "value": 4.04},
      {"measurement": "Kb", "setting": "Histamine H3 receptor", "value": 4370, "unit": "nM"},
      {"measurement": "Kb", "setting": "Histamine H1 receptor [4]", "value": 0.912, "unit": "nM"},
      {"measurement": "Kb", "setting": "Histamine H1 receptor [5]", "value": 0.832, "unit": "nM"},
      {"measurement": "Emax", "setting": "[6]", "value": 66, "unit": "%"},
      {"measurement": "Emax", "setting": "[7]", "value": 59, "unit": "%"},
      {"measurement": "Emax", "setting": "[8]", "value": 97, "unit": "%"},
      {"measurement": "pKp", "setting": "[9]", "value": 6.47},
      {"measurement": "Kb", "setting": "[10]", "value": 115000, "unit": "nM"},
      {"measurement": "Emax", "setting": "[11]", "value": 77, "unit": "%"}
    ]},
    {"smiles": "NCCc1c[nH]cn1", "values": [
      {"measurement": "Emax", "setting": "[6]", "value": 100, "unit": "%"},
      {"measurement": "Emax", "setting": "[7]", "value": 100, "unit": "%"},
      {"measurement": "Emax", "setting": "[8]", "value": 100, "unit": "%"},
      {"measurement": "Emax", "setting": "[11]", "value": 100, "unit": "%"}
    ]},
    {"smiles": "CNCCc1c[nH]c(-c2cccc(Br)c2)n1", "values": [
      {"measurement": "Relative potency", "setting": "[1]", "value": 109, "unit": "%"},
      {"measurement": "Relative potency", "setting": "[2]", "value": 43, "unit": "%"},
      {"measurement": "pD2", "setting": "[3]", "value": 3.86},
      {"measurement": "Kb", "setting": "Histamine H3 receptor", "value": 11700, "unit": "nM"},
      {"measurement": "Kb", "setting": "Histamine H1 receptor [4]", "value": 0.741, "unit": "nM"},
      {"measurement": "Kb", "setting": "Histamine H1 receptor [5]", "value": 0.977, "unit": "nM"},
      {"measurement": "Emax", "setting": "[6]", "value": 75, "unit": "%"},
      {"measurement": "Emax", "setting": "[7]", "value": 76, "unit": "%"},
      {"measurement": "Emax", "setting": "[8]", "value": 95, "unit": "%"},
      {"measurement": "pKp", "setting": "[9]", "value": 6.17},
      {"measurement": "Kb", "setting": "[10]", "value": 112000, "unit": "nM"},
      {"measurement": "Emax", "setting": "[11]", "value": 71, "unit": "%"}
    ]},
    {"smiles": "NCCc1c[nH]c(-c2cccc(Br)c2)n1", "values": [
      {"measurement": "Kb", "setting": "Histamine H3 receptor", "value": 6310, "unit": "nM"},
      {"measurement": "Kb", "setting": "Histamine H1 receptor [4]", "value": 0.741, "unit": "nM"},
      {"measurement": "Kb", "setting": "Histamine H1 receptor [5]", "value": 1.26, "unit": "nM"},
      {"measurement": "Emax", "setting": "[7]", "value": 64, "unit": "%"},
      {"measurement": "Emax", "setting": "[8]", "value": 100, "unit": "%"},
      {"measurement": "pKp", "setting": "[9]", "value": 5.97},
      {"measurement": "Kb", "setting": "[10]", "value": 155000, "unit": "nM"}
    ]},
    {"smiles": "NCCc1c[nH]c(-c2cccc(C(F)(F)F)c2)n1", "values": [
      {"measurement": "Relative potency", "setting": "[1]", "value": 128, "unit": "%"},
      {"measurement": "Relative potency", "setting": "[2]", "value": 94, "unit": "%"},
      {"measurement": "pD2", "setting": "[3]", "value": 3.48},
      {"measurement": "Emax", "setting": "[12]", "value": 97, "unit": "%"},
      {"measurement": "Emax", "setting": "[13]", "value": 80, "unit": "%"},
      {"measurement": "Emax", "setting": "[14]", "value": 65, "unit": "%"},
      {"measurement": "Emax", "setting": "[7]", "value": 80, "unit": "%"},
      {"measurement": "Emax", "setting": "[8]", "value": 100, "unit": "%"},
      {"measurement": "pKp", "setting": "[9]", "value": 6.23}
    ]},
    {"smiles": "CN(C)CCc1c[nH]c(-c2cccc(C(F)(F)F)c2)n1", "values": [
      {"measurement": "Relative potency", "setting": "[1]", "value": 95, "unit": "%"},
      {"measurement": "Relative potency", "setting": "[2]", "value": 169, "unit": "%"},
      {"measurement": "pD2", "setting": "[3]", "value": 4.56},
      {"measurement": "Kb", "setting": "Histamine H3 receptor", "value": 1120, "unit": "nM"},
      {"measurement": "Kb", "setting": "Histamine H1 receptor [4]", "value": 1.2, "unit": "nM"},
      {"measurement": "Kb", "setting": "Histamine H1 receptor [5]", "value": 1.41, "unit": "nM"},
      {"measurement": "Emax", "setting": "[6]", "value": 64, "unit": "%"},
      {"measurement": "Emax", "setting": "[7]", "value": 54, "unit": "%"},
      {"measurement": "Emax", "setting": "[8]", "value": 88, "unit": "%"},
      {"measurement": "pKp", "setting": "[9]", "value": 6.39},
      {"measurement": "Kb", "setting": "[10]", "value": 26900, "unit": "nM"},
      {"measurement": "Emax", "setting": "[11]", "value": 67, "unit": "%"}
    ]},
    {"smiles": "NCCc1cnc(-c2cccc(C(F)(F)F)c2)[nH]1", "values": [
      {"measurement": "Kb", "setting": "Histamine H3 receptor", "value": 6170, "unit": "nM"},
      {"measurement": "Kb", "setting": "Histamine H1 receptor [4]", "value": 0.891, "unit": "nM"},
      {"measurement": "Kb", "setting": "Histamine H1 receptor [5]", "value": 0.977, "unit": "nM"},
      {"measurement": "Kb", "setting": "[10]", "value": 107000, "unit": "nM"}
    ]},
    {"smiles": "FC(F)(F)c1cccc(-c2nc(CCNC3CC3)c[nH]2)c1", "values": [
      {"measurement": "Relative potency", "setting": "[1]", "value": 28, "unit": "%"},
      {"measurement": "pD2", "setting": "[3]", "value": 4.36},
      {"measurement": "Kb", "setting": "Histamine H1 receptor [4]", "value": 0.741, "unit": "nM"},
      {"measurement": "Emax", "setting": "[8]", "value": 36, "unit": "%"},
      {"measurement": "pKp", "setting": "[9]", "value": 6.12},
      {"measurement": "Emax", "setting": "[11]", "value": 20, "unit": "%"}
    ]}
  ]
}
